Data taken from patent US4371537A, “Sulfur-substituted phenoxypyridines having antiviral activity” (The Dow Chemical Company, priority 1981, dated 1983).
In brackets after ≈: the same amount, converted by molar mass.

Experiments:
[1] = test system: Coxsackie A21 virus (Cox A21); test: Tissue culture testing, Coxsackie A21 virus in HeLa cells; format: cell-based; details: 48 and 72 hours, NA = not active at the standard test conditions, read-out: Cox A21: lowest concentration of the compound necessary to cause a 50 percent reduction in cytopathic effect
In short: (§1)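 Treatment preceded infection: HeLa cell monolayers took up compound in Eagle's medium containing fetal calf serum, and virus was then applied. Uninfected cultures and cultures without compound acted as references.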

[2] = Cytotoxicity in tissue culture testing (HeLa monolayers); format: cell-based; details: human; HeLa cells; observed at 48 and 72 hours post-treatment; read-out: Cytotoxicity: concentration of the compound found to be toxic to the cell
In short: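 HeLa monolayers treated with compound in Eagle's medium with fetal calf serum, then challenged with rhinovirus (RV-1A, RV-2, some RV-5, RV-8, RV-64) or Coxsackie A21. Untreated and virus-free cell controls included.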

[3] = test system: rhinovirus type 1A (RV-1A); test: Tissue culture testing, rhinovirus type 1A in HeLa cells; format: cell-based; details: Enterovirus, 48 and 72 hours, NA = not active at the standard test conditions, read-out: RV-1A: lowest concentration of the compound necessary to cause a 50 percent reduction in cytopathic effect
In short: as §1

Coxsackie A21 virus = test: Continuous Oral Feeding test in mice challenged IP with Coxsackie A21 virus; format: in vivo; details: po, 0.06 % in diet, 240 h
Method: Some of the compounds were also tested in animals utilizing the following procedure, hereainafter referred to as the "Continuous Oral Feeding" test. Coxsackie A21 virus grown on HeLa cells was administered at a concentration that produces 80 to 100% deaths in mice weighing 8 to 12 grams within 10 days, when the mice are injected (IP) with 0.2 ml of virus preparation. Mice were placed on diets containing test compound dispersed in plain commercially available rodent mash chow at a concentration of 0.06% (weight percent) on day 0. On day 1 the mice were challenged with the virus preparation, 0.2 ml/mouse, (IP). Deaths in both control and experimental groups were recorded for the 10 days and the results analyzed by a chi-square (.chi.^2) test. Chi-square values greater than 3.84 indicate the compound is active (95% confidence level).

[4] = test system: rhinovirus type 64 (RV-64); test: Tissue culture testing, rhinovirus type 64 in HeLa cells; format: cell-based; details: Enterovirus, 48 and 72 hours, NA = not active at the standard test conditions, read-out: RV-64: lowest concentration of the compound necessary to cause a 50 percent reduction in cytopathic effect
Method: (§2) Monolayered HeLa cells in 16 millimeter (mm) tissue culture dishes were treated with 1 ml of culture medium (Eagles medium supplemented with fetal calf serum) containing subject compound at an appropriate concentration or containing no compound at all. Culture media such as those described herein are more fully described in standard texts, as for example, Kuchler's Biochemical Methods in Cell Culture and Virology, Dowden, Hutchinson and Ross, Inc., Stroudsberg, PA (1977). Following treatment, cells were challenged with 0.05 ml of rhinovirus type 1A (RV-1A), rhinovirus type 2 (RV-2) or Coxsackie A21 virus (Cox A21) in culture medium. Some of the compounds were also tested against rhinovirus type 5 (RV-5), rhinovirus type 8 (RV-8) or rhinovirus type 64 (RV-64). Cell controls received no viruses.
(§3) ^2 Lowest concentration of the compound (μg/ml) necessary to cause

rhinovirus type 2 (RV-2) = test: Tissue culture testing, rhinovirus type 2 in HeLa cells; format: cell-based; details: Enterovirus, 48 and 72 hours, NA = not active at the standard test conditions, read-out: RV-2: lowest concentration of the compound necessary to cause a 50 percent reduction in cytopathic effect
In short: as §1

rhinovirus type 8 (RV-8) = test: Tissue culture testing, rhinovirus type 8 in HeLa cells; format: cell-based; details: Enterovirus, 48 and 72 hours, NA = not active at the standard test conditions, read-out: RV-8: lowest concentration of the compound necessary to cause a 50 percent reduction in cytopathic effect
Method: as §2, §3

Cox A21 = test: Single Oral Dose test in mice challenged IP with Cox A21; format: in vivo, Swiss male mice; details: 600 mg/kg P.O. 3 h after IP challenge; >3.84 significant (95% confidence level)
Method: In addition, some of the compounds were tested in animals utilizing the following procedure, hereinafter referred to as the "Single Oral Dose" test. Swiss male mice, 8-12 grams in weight were challenged intraperitoneally (IP) with 0.2 ml of a normally lethal dose, i.e., a virus dose sufficient to cause […].80-100% mortality in infected animals within 10 days of challenge of Cox A21, in phosphate buffered saline containing 1% heat inactivated fetal calf serum. Three hours later mice were treated orally (P.O.) with 0.2 ml of compound suspended in 0.5% hydroxypropyl methylcellulose (Methocel) or with 0.2 ml of 0.5% Methocel containing no compound. […] Mice were observed daily for 7-10 days post-challenge and deaths recorded. A modified Mantel-Haenzel combined chi-square procedure was used to determine significant difference between virus control and treated groups. Chi-square values greater than 3.84 are considered significant (95% confidence level) in this test.

rhinovirus type 5 (RV-5) = test: Tissue culture testing, rhinovirus type 5 in HeLa cells; format: cell-based; details: Enterovirus, 48 and 72 hours, NA = not active at the standard test conditions, read-out: RV-5: lowest concentration of the compound necessary to cause a 50 percent reduction in cytopathic effect
Method: as §2, §3

RV-1A, RV-2 or Cox A21 = test: Summary of HeLa tissue culture testing against the test viruses; format: cell-based, rhinovirus types 1A and 2, Coxsackie A21 virus; details: active on RV-1A and RV-2 at a test concentration equivalent to the cytotoxic concentration
Method: as §2

Structure (SMILES) | EC50 [1] | MCC [2] | EC50 [3] | Continuous Oral Feeding X^2 (chi-square, deaths vs control) (Coxsackie A21 virus) | EC50 [4] | EC50 (rhinovirus type 2 (RV-2)) | EC50 (rhinovirus type 8 (RV-8)) | Single Oral Dose X^2 (chi-square, deaths vs virus control) (Cox A21) | EC50 (rhinovirus type 5 (RV-5)) | antiviral activity in tissue culture (RV-1A, RV-2 or Cox A21)
CS(=O)(=O)c1ccc(Oc2ccc(Br)cc2)nc1 [Example 29, 2-(4-bromophenoxy)-5-(methylsulfonyl)pyridine] | 5 µg/mL (≈ 15.2 µM) | 50 µg/mL | 0.625 µg/mL (≈ 1.9 µM) | 20.885 | 0.625 µg/mL (≈ 1.9 µM) | 0.625 µg/mL (≈ 1.9 µM) | 6.25 µg/mL (≈ 19 µM) | 5.275 | 25 µg/mL (≈ 76.2 µM) | –
CS(=O)(=O)c1ccc(Oc2ccc(C#N)cc2)nc1 [Example 30, 4-((5-(methylsulfonyl)-2-pyridinyl)oxy)benzonitrile] | 6.25 µg/mL (≈ 22.8 µM) | > 100 µg/mL | 50 µg/mL (≈ 182 µM) | 24.144 | 25 µg/mL (≈ 91.1 µM) | 50 µg/mL (≈ 182 µM) | 25 µg/mL (≈ 91.1 µM) | 30.960 | 50 µg/mL (≈ 182 µM) | –
CCS(=O)(=O)c1cccnc1Oc1ccc(C(=O)c2ccccc2)cc1 [Example 74] | – | 50 µg/mL | 50 µg/mL (≈ 136 µM) | – | – | ~50 µg/mL (≈ 136 µM) | – | – | – | only marginally active
